Reference: patent US20190209515A1, “Treatment of Bladder Cancer by Intratumoral Injection of Taxane Particles” (CRITITECH, INC., priority 2018, published 2019)
Several values for one entry are separate records, joined by “and”; a condition that tells them apart may be missing. Equal entries are not always repeated. Entries after “also recorded” stand apart in the source; their conditions may differ. Marks after values point to notes of the source that are not given here. Values belong to the molecule of their own block, whether it stands above or below them.

Tests used:
[1] = Docetaxel dissolution study, methanol/water 15/85, USP Apparatus II; assay type: physicochemical; settings: methanol/water 15/85 (v/v), 37° C., pH 7, USP Apparatus II 75 rpm
Method: The procedures used to determine the dissolution rates are as follows. […] Beads were transferred to a stainless steel mesh container and placed in the dissolution bath containing methanol/water 50/50 (v/v) media at 37° C., pH 7, and a USP Apparatus II (Paddle), operating at 75 rpm. At 10, 20, 30, 60, and 90 minutes, a 5 mL aliquot was removed, filtered through a 0.22 μm filter and analyzed on a UV/VIS spectrophotometer at 227 nm. Absorbance values of the samples were compared to those of standard solutions prepared in dissolution media to determine the amount of material dissolved. […] At 5, 15, 30, 60, 120 and 225 minutes, a 5 mL aliquot was removed, filtered through a 0.22 μm filter, and analyzed on a UV/VIS spectrophotometer at 232 nm. Absorbance values of the samples were compared to those of standard solutions prepared in dissolution media to determine the amount of material dissolved.
At 5, 15, 30, 60, 120 and 225 minutes, a 5 mL aliquot was removed, filtered through a 0.22 μm filter, and analyzed on a UV/VIS spectrophotometer at 232 nm. Absorbance values of the samples were compared to those of standard solutions prepared in dissolution media to determine the amount of material dissolved.

[2] = Particle size analysis (light obscuration / laser diffraction); assay type: physicochemical
Method: Particle size was analyzed by both light obscuration and laser diffraction methods. An Particle Sizing Systems AccuSizer 780 SIS system was used for the light obscuration method and Shimadzu SALD-7101 was used for the laser diffraction method.
The vials were vortexed for approximately 10 seconds and then sonicated in a sonic bath approximately 1 minute.
The vial was vortexed for approximately 10 seconds and then sonicated in a sonic bath for approximately 2 minutes. This suspension was used for laser diffraction analysis. Unused suspension was poured into a 125 mL particle-free plastic bottle, which was then filled to approximately 100 mL with filtered dispersant. The suspension was vortex for approximately 10 seconds and then sonicated in the sonic bath for approximately 2 minutes. This diluted suspension was used for light obscuration analysis.
A background test was first performed prior to analyzing particles on the AccuSizer 780 SIS. A new particle-free plastic bottle was filled with blank suspension solution by pumping from a reservoir, using a peristaltic pump, through a 0.22 μm Millipore filter and into the bottle. A background analysis was run to ensure the particle/mL count was below 100 particles/mL. […] Once the analysis was completed, the background data was removed and any measurement with less than four counts was removed. […]

[3] = BET specific surface area analysis; assay type: physicochemical
Method: As used herein, the “specific surface area” (SSA) is the total surface area of the taxane particle per unit of taxane mass as measured by the Brunauer-Emmett-Teller (“BET”) isotherm by the following method: a known mass between 200 and 300 mg of the analyte is added to a 30 mL sample tube. […] The automated test is then carried out using the BETWIN® software package and the surface area of each sample is subsequently calculated. As will be understood by those of skill in the art, the “taxane particles” can include both agglomerated taxane particles and non-agglomerated taxane particles; since the SSA is determined on a per gram basis it takes into account both the larger agglomerated and smaller non-agglomerated taxane particles in the composition. The agglomerated taxane particles are defined herein as individual taxane particles that are formed by the agglomeration of smaller particles which fuse together forming the larger individual taxane particles, all of which occurs during the processing of the taxane particles. […]
A known mass between 200 and 300 mg of the analyte was added to a 30 mL sample tube. […] The automated test was then carried out using the BETWIN® software package and the surface area of each sample was subsequently calculated.

[4] = Paclitaxel dissolution study, methanol/water 50/50, USP Apparatus II; assay type: physicochemical; settings: methanol/water 50/50 (v/v), 37° C., pH 7, USP Apparatus II 75 rpm
Method: Beads were transferred to a stainless steel mesh container and placed in the dissolution bath containing methanol/water 50/50 (v/v) media at 37° C., pH 7, and a USP Apparatus II (Paddle), operating at 75 rpm. […] Absorbance values of the samples were compared to those of standard solutions prepared in dissolution media to determine the amount of material dissolved. […] Absorbance values of the samples were compared to those of standard solutions prepared in dissolution media to determine the amount of material dissolved.
Beads were transferred to a stainless steel mesh container and placed in the dissolution bath containing methanol/water 50/50 (v/v) media at 37° C., pH 7, and a USP Apparatus II (Paddle), operating at 75 rpm. […] Absorbance values of the samples were compared to those of standard solutions prepared in dissolution media to determine the amount of material dissolved.

[5] = not told, pH 4
Method: Receptor Fluid: The receptor fluid consisted of 60 vol %/40 vol % methanol/water at pH 4 with 0.01 wt % NaN3 (added as a preservative). […] After mixing and degassing the Receptor Fluid it was filtered through a ZapCap CR 0.2 μm membrane under vacuum; the Receptor Fluid, so filtered, was stirred for an additional 20 minutes under vacuum.

[6] = system: UM-UC-3 bladder cancer cell line (ATCC-CRL-1749) tumors; test: Human bladder cancer (UM-UC-3) mouse xenograft study, tumor volume; assay type: in vivo
Method: (§1) Tumor volume was determined with calipers. […] Animals were weighed 2×/week.
At day 18 after tumor implant, when average tumor size was between 50-325 mm^3, animals were sorted into five groups with equal average tumor sizes and were treated as shown in Table 8 below.
The second treatments (2nd cycle) occurred 7 days following first treatment (1st cycle) and third treatments (3rd cycle) occurred 14 days following the first treatment. The docetaxel solution IV was administered via the tail vein.
Vehicle (Control): Diluted 1 ml of the 1% Polysorbate 80/8% Ethanol in normal saline (0.9% Sodium Chloride for Injection) reconstitution solution with 1.5 mL of normal saline (0.9% Sodium Chloride for Injection, USP). […] Vigorously hand shook the vial with inversions for 1 minute. […] Allowed the suspension to sit undisturbed for at least 5 minutes to reduce entrapped air and foam. […] Vortexed to mix.
Tumor volumes were determined 2×/week for the duration of the study (61 days).

[7] = system: UM-UC-3 bladder cancer cell line (ATCC-CRL-1749) tumors; test: UM-UC-3 xenograft study, H&E histology and immunohistochemistry of tumor site tissue; assay type: in vivo, mouse
[8] = mouse, in vivo, iv
Method: as §1

[9] = IV docetaxel 3 cycles, of 7 tumors measured, day of death or euthanasia
[10] = IV Docetaxel 3 cycles, individual animals
[11] = IV Docetaxel 3 cycles, 2 animals

Dissolution (30 min) [1]: 11%
Molecule: CC(=O)O[C@@]12CO[C@@H]1C[C@H](O)[C@@]1(C)C(=O)[C@H](O)C3=C(C)[C@@H](OC(=O)[C@H](O)[C@@H](NC(=O)OC(C)(C)C)c4ccccc4)C[C@@](O)([C@@H](OC(=O)c4ccccc4)[C@H]21)C3(C)C [Docetaxel Raw Material, docetaxel]

Number Mean [2]: 1.16 um | Surface Area [3]: 10.4 m^2/g | Dissolution (30 min) [4]: 18%
Molecule: CC(=O)O[C@H]1C(=O)[C@@]2(C)[C@H]([C@H](OC(=O)c3ccccc3)[C@]3(O)C[C@H](OC(=O)[C@H](O)[C@@H](NC(=O)c4ccccc4)c4ccccc4)C(C)=C1C3(C)C)[C@]1(OC(C)=O)CO[C@@H]1C[C@@H]2O [Paclitaxel Raw Material, paclitaxel]

solubility in the Receptor Fluid [5]: sufficient to maintain sink conditions
Molecule: CC(=O)O[C@H]1C(=O)[C@@]2(C)[C@H]([C@H](OC(=O)c3ccccc3)[C@]3(O)C[C@H](OC(=O)[C@H](O)[C@@H](NC(=O)c4ccccc4)c4ccccc4)C(C)=C1C3(C)C)[C@]1(OC(C)=O)CO[C@@H]1C[C@@H]2O [paclitaxel]

Molecule: docetaxel
tumor volume ([6]; Docetaxel solution 30 mg/kg IV, 3 weekly cycles, to Day 61 post implant): subsequently increased; also recorded: somewhat effective at treating small tumors, but not very effective in treating large tumors | Necropsy volume [6, 10]: 2872 mm^3 and 1652 mm^3 | general histological observations (H&E) ([7]; Docetaxel solution IV 3 cycles): many viable appearing tumor masses with some macrophage and occasional lymphocytic response along with some tumor necrosis | Maximum size of viable invasive carcinoma on the slide >10 mm, number of animals [7, 11]: 2* | Percentage of tumor showing necrosis 11-50%, number of animals [7, 11]: 1 | Percentage of tumor showing necrosis 50-90%, number of animals [7, 11]: 1 | Macrophage infiltrate density Mild, number of animals ([7]; IV Docetaxel 3 cycles, 2 animals, H&E and CD68): 2 | Maximum tumor size on slide [7, 10]: 11 mm and 15 mm | initial animal weight loss [8]: generally greater | signs of peripheral neuropathy [8]: greater signs of peripheral neuropathy | tumors with docetaxel levels above the limit of quantitation (1 ng/g) [9]: 1
